Experimental data: the supplement of paper PMC10307832

How the values were obtained:
Test in all cases: relative viability (nuclei count vs DMSO), 5 days (fraction); higher = more cells survive
[1] = compound: CCn1c(-c2nonc2N)nc2c(C#CC(C)(C)O)ncc(OC[C@H]3CCCNC3)c21 + CC(=O)c1c(C)c2cnc(Nc3ccc(N4CCNCC4)cn3)nc2n(C2CCCC2)c1=O [Palbociclib] (partner 0.5 µM)
Summary of the method: (§1)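 Values are medians from duplicate plates. Each reflects relative viability, defined as the nuclei count of treated wells over that of vehicle wells. Lung cancer cell lines in 1536-well plates were pin-tool dosed one day after seeding with one drug alone or with a fixed anchor-drug dose plus five library-drug doses (not always all listed) in √10 steps, then fixed, stained and imaged at 4× after 5 days.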

[2] = compound: CCn1c(-c2nonc2N)nc2c(C#CC(C)(C)O)ncc(OC[C@H]3CCCNC3)c21 + CC1(C)CCC(c2ccc(Cl)cc2)=C(CN2CCN(c3ccc(C(=O)NS(=O)(=O)c4ccc(N[C@H](CCN5CCOCC5)CSc5ccccc5)c(S(=O)(=O)C(F)(F)F)c4)cc3)CC2)C1 [Navitoclax] (partner 0.5 µM)
Summary of the method: as §1

[3] = compound: CCOC1=CC=CC=C1N=NC2=C(NN(C2=O)C3=NC(=CS3)C4=CC=CC=C4)C [BAM7] + Cc1cc(Nc2cc(N3CCN(C)CC3)nc(Sc3ccc(NC(=O)C4CC4)cc3)n2)n[nH]1 [Tozasertib] (partner 0.1 µM)
Summary of the method: as §1

[4] = compound: CCn1c(-c2nonc2N)nc2c(C#CC(C)(C)O)ncc(OC[C@H]3CCCNC3)c21 + C[C@]1(O)C[C@@H](c2nc(-c3ccc4ccc(-c5ccccc5)nc4c3)c3c(N)nccn32)C1 [Linsitinib] (partner 1 µM)
Summary of the method: as §1

Cell Line	relative viability ([1]; first compound 0.01 µM)	relative viability ([1]; first compound 0.03162 µM)	relative viability ([1]; first compound 0.1 µM)	relative viability ([1]; first compound 0.3162 µM)	relative viability ([1]; first compound 1 µM)	relative viability ([2]; first compound 0.01 µM)	relative viability ([2]; first compound 0.03162 µM)	relative viability ([2]; first compound 0.1 µM)	relative viability ([2]; first compound 0.3162 µM)	relative viability ([2]; first compound 1 µM)	relative viability ([3]; first compound 0.5 µM)	relative viability ([3]; first compound 5 µM)	relative viability ([3]; first compound 15.81 µM)	relative viability ([3]; first compound 50 µM)	relative viability ([4]; first compound 0.01 µM)	relative viability ([4]; first compound 0.03162 µM)	relative viability ([4]; first compound 0.1 µM)	relative viability ([4]; first compound 0.3162 µM)	relative viability ([4]; first compound 1 µM)
NCI-H838	0.19	0.221	0.199	0.172	0.227	1.15	1.22	1.2	1.03	1.19	0.262	0.309	0.233	0.263	1.03	1.05	1.02	0.991	0.975
NCI-H1755	0.451	0.514	0.463	0.437	0.422	0.985	0.984	0.981	0.958	1.01	0.602	0.615	0.55	0.644	1.04	1.02	1	0.954	1.01
HCC-78	0.519	0.487	0.454	0.465	0.43	0.661	0.826	0.678	0.654	0.71	0.428	0.371	0.446	0.393	0.502	0.496	0.5	0.424	0.546
IA-LM						0.76	0.66	0.929	0.576	0.313					0.62	0.554	0.658	0.518	0.464
NCI-H322M	0.456	0.48	0.487	0.463	0.475	1.25	1.27	1.17	1.13	1.23	0.481	0.474	0.523	0.467	0.976	0.988	0.942	0.89	0.909
NCI-H3122	0.177	0.18	0.176	0.175	0.219	1.05	1	1.06	1.01	1.04	0.44	0.387	0.351	0.324	1.05	0.944	0.972	1.01	1.03
COR-L23	0.22	0.288	0.226	0.231	0.226	0.838	1.05	1.01	0.968	1.03	0.177	0.197	0.133	0.183	0.891	0.946	0.884	0.805	0.829
NCI-H650	0.318	0.33	0.304	0.368	0.325						0.803	0.861	0.702	0.796	0.714	0.79	0.959	0.766	0.789
NCI-H1792	0.607		0.601	0.586	0.701	0.722	0.501	0.619	0.62	0.604					0.523	0.567	0.464	0.491	0.461
ChaGo-K-1	0.915	0.918	0.939	0.893	0.84	1.1	0.88	0.951	0.899	1.14	0.226	0.229	0.197	0.262					
NCI-H522	0.9	1.12	1.22	0.781	0.916						0.574	0.57	0.561	0.583					
NCI-H1299						1.04	1.06	1.02	1.03	1.08					0.95	1.06	0.948	0.941	1.02
NCI-H1650	0.382	0.291	0.396	0.153	0.276	1.2	1.04	1.03	0.894	1.13	0.335	0.305	0.28	0.314					
NCI-H1648	0.266	0.272	0.235	0.262	0.317						0.565	0.356		0.434					
NCI-H596						0.914	0.96	0.934	1	0.938	1.11	0.936	0.789	0.9	0.993	1.08	0.931	1.03	1.03
NCI-H2342	0.521	0.549	0.551	0.679	0.512						0.453	0.519	0.387	0.374					
SW 900	0.558	0.557	0.483	0.649	0.444						0.48	0.556	0.475	0.562					
A549						1.16	1.35	1.28	1.08	1.06					0.681	0.624	0.444	0.505	0.647
NCI-H2170	0.391	0.441	0.378	0.372	0.435	0.613	0.585	0.64	0.493	0.529	0.664	0.748	0.501	0.793					
NCI-H661	0.446	0.399	0.39	0.389	0.372						0.376	0.361	0.359	0.358	0.566	0.658	0.508	0.546	0.576
NCI-H1563															1.18	1.07	1.15	1.08	0.96
ABC-1	0.578		0.678	0.735	0.555						0.164	0.162	0.183	0.227	0.818	0.73	0.847	0.685	0.526
LCLC-103H	0.511	0.475	0.503	0.48	0.352						0.445	0.513	0.402	0.51	1.13	1.09	1.01	1.04	1.15
